The assay concerns the target T1, human full-length recombinant PKC βII (Homo sapiens, UniProt P05771).
T1 construct: Active human full-length recombinant PKC βII; purchased Invitrogen GmbH, Darmstadt, Germany
Nature of the assay: Determination of PKC βII inhibition (Caliper mobility-shift kinase assay, phosphorylation of fluorescein peptide substrate). It is filed as biochemical. The conditions noted are these: final compound concentration 1.14 µM (±0.15 µM); 60 min incubation at 32 °C. On the procedure:
Determination of PKC βII inhibition
PKC βII inhibition was determined according to the following protocol:
Active human full-length recombinant PKC βII and the peptide substrate, Fluorescein-RFARKGSLRQKNV, were purchased from Invitrogen GmbH, Darmstadt, Germany. Adenosine-5'-triphosphate (ATP), bovine serum albumine (BSA), dimethylsulphoxide (DMSO), 4-(2-hydroxyethyl)piperazine-1-ethanesulfonic acid (Hepes), Triton X-100, 1,2-Dioleoyl-sn-glycerol (DAG), L-α-Phosphatidyl-L-serine (PS), calcium chloride (CaCl2), and Pluronic F-68 were purchased from Sigma-Aldrich, Munich, Germany. Magnesium chloride, 1 M sodium hydroxide solution, 1M hydrochloric acid solution and EDTA were obtained from Merck Biosciences, Darmstadt, Germany.
Test compounds were diluted to three times the test concentration in buffer 1 (30 mM Hepes-NaOH, pH 7.4, 0.01 % Pluronic F-68 and 3 % (v/v) DMSO). The PKC βII enzyme was diluted to a concentration of 30 ng/ml in buffer 2 (30 mM Hepes-NaOH, pH 7.4, 15 mM MgCl2,150 µM CaCl2, 150 µg/ml PS, 60 µg/ml DAG, and 0.045 % (w/v) Triton X-100). The peptide substrate and ATP were diluted to concentrations of 3 µM and 120 µM, respectively, in buffer 2. Two µl of the compound solution were mixed with 2 µl of the diluted enzyme in a 384-well small volume microtiter plate (Greiner, Bio-One, Frickenhausen, Germany), and the kinase reaction was initiated by addition of 2 µl of the solution containing peptide substrate and ATP. After 60 min incubation at 32 °C, the reaction was stopped by addition of 20 µl of a solution containing 130 mM Hepes-NaOH, pH 7.4, 0.0195 % (v/v) Brij-35, 6.5 mM EDTA, 0.13 % chip coating reagent 3 (Caliper Lifescience Inc, Hopkinton, MA) and 6.5 % (v/v) DMSO. Phosphorylation of the substrate peptide was then detected on a Caliper 3000 instrument essentially as described by Pommereau et al (J. Biomol. Screening 2004, 9(5), 409-416). Separation conditions were as follows: Pressure -0.8 psi, upstream voltage - 3000 V, downstream voltage -800 V. Positive controls (buffer 1 instead of compound) and negative controls (buffer 1 instead of compound and buffer 2 instead of kinase solution) were run in parallel on each plate. Fractional turnover (R) was determined as the height of the peak of the phosphorylated peptide product divided by the sum of the unphosphorylated substrate and phosphorylated product peak heights. Percent-inhibition values for the test compounds were determined using the formula % Inhibition = 100*(1-(Rcompound-Rnegative control)/(Rpositive control-Rnegative control). [formula]
In the following table % inhibition values observed with example compounds at a final concentration of 1.14 µM (±0.15 µM) are listed: […]
T1 sequence (P05771 1-673 isoform P05771-2): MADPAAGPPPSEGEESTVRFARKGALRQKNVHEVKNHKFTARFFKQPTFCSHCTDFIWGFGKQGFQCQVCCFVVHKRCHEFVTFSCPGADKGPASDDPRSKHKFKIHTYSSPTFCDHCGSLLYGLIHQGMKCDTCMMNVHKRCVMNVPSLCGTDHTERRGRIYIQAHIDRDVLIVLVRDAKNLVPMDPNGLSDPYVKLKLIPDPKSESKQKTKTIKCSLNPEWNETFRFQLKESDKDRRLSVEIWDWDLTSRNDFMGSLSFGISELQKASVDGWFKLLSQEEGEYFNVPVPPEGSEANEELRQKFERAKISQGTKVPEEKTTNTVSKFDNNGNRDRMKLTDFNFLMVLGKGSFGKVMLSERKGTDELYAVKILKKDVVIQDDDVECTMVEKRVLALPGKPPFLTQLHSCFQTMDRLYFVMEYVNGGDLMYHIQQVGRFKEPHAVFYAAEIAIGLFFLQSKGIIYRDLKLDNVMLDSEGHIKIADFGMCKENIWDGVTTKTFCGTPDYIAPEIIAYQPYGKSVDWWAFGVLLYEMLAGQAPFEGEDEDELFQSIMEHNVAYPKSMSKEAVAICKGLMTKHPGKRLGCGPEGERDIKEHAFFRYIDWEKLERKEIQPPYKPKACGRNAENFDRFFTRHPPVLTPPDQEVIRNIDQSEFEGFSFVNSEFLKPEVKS
One may read the inhibition as the change of the read-out against control, counted positive when it falls. Turning to `N#Cc1cccc(/C=C/c2n[nH]c3nc(-c4ccc(O)cc4)cc(C(=O)N4CCNCC4)c23)c1` [Example 25, 3-{(E)-2-[6-(4-Hydroxy-phenyl)-4-(piperazine-1-carbonyl)-1H-pyrazolo[3,4-b]pyridin-3-yl]-vinyl}-benzonitrile], the inhibition at 1.14 µM amounted to 99%.
For `O=C(c1cc(-c2ccc(O)cc2)nc2[nH]nc(/C=C/c3cccc(N4CCCCC4)c3)c12)N1CCNCC1` [Example 26, {6-(4-Hydroxy-phenyl)-3-[(E)-2-(3-piperidin-1-yl-phenyl)-vinyl]-1H-pyrazolo[3,4-b]pyridin-4-yl}-piperazin-1-yl-methanone], the inhibition at 1.14 µM is 96%.
In the case of `O=C(c1cc(-c2ccc(O)cc2)nc2[nH]nc(/C=C/c3cccc(N4CCOCC4)c3)c12)N1CCNCC1` [Example 27, {6-(4-Hydroxy-phenyl)-3-[(E)-2-(3-morpholin-4-yl-phenyl)-vinyl]-1H-pyrazolo[3,4-b]pyridin-4-yl}-piperazin-1-yl-methanone], the inhibition at 1.14 µM was determined as 98%.
Take `O=C(c1cc(-c2ccc(O)cc2)nc2[nH]nc(/C=C/c3cccc(N4CCCC4)c3)c12)N1CCNCC1` [Example 28, {6-(4-Hydroxy-phenyl)-3-[(E)-2-(3-pyrrolidin-1-yl-phenyl)-vinyl]-1H-pyrazolo[3,4-b]pyridin-4-yl}-piperazin-1-yl-methanone]: the inhibition at 1.14 µM worked out at 94%.
As to `Cc1cc(/C=C/c2n[nH]c3nc(-c4ccc(O)cc4)cc(C(=O)N4CCNCC4)c23)ccc1C#N` [Example 29, 4-{(E)-2-[6-(4-Hydroxy-phenyl)-4-(piperazine-1-carbonyl)-1H-pyrazolo[3,4-b]pyridin-3-yl]-vinyl}-2-methyl-benzonitrile], the inhibition at 1.14 µM stood at 96%.
As for `O=C(c1cc(-c2ccc(O)cc2)nc2[nH]nc(/C=C/c3cc(Cl)cc(N4CCCCC4)c3)c12)N1CCNCC1` [Example 30, [3-[(E)-2-(3-Chloro-5-pipe-ridin-1-yl-phe-nyl)-vinyl]-6-(4-hydroxy-phenyl)-1H-pyrazolo[3,4-b]pyridin-4-yl]-piperazin-1-yl-methanone], the figure is 90%.
On to `CN(C)C(=O)c1cccc(/C=C/c2n[nH]c3nc(-c4ccc(O)cc4)cc(C(=O)N4CCNCC4)c23)c1` [Example 31, 3-{(E)-2-[6-(4-Hydroxy-phenyl)-4-(piperazine-1-carbonyl)-1H-py-razolo[3,4-b]py-ridin-3-yl]-vinyl}-N,N-dimethyl-benzamide], for which the inhibition at 1.14 µM was found to be 99%.
With `CN1Cc2cc(/C=C/c3n[nH]c4nc(-c5ccc(O)cc5)cc(C(=O)N5CCNCC5)c34)ccc2C1=O` [Example 32, 5-{(E)-2-[6-(4-Hydroxy-phenyl)-4-(piperazine-1-carbonyl)-1H-py-razolo[3,4-b]pyri-din-3-yl]-vinyl}-2-methyl-2,3-di-hydro-isoindol-1-one] the figure was 99%.
With `O=C(c1cc(-c2ccc(O)cc2)nc2[nH]nc(/C=C/c3cccc4c3NCC4)c12)N1CCNCC1` [Example 33, [3-[(E)-2-(2,3-Dihydro-1H-indol-7-yl)-vinyl]-6-(4-hydroxyphenyl)-1H-pyrazolo[3,4-b]-pyridin-4-yl]-piperazin-1-yl-methanone] the figure was 99%; with `CN(C)C(=O)c1cccc(/C=C/c2n[nH]c3nc(-c4ccc(O)cc4)cc(C(=O)N4CCNCC4(C)C)c23)c1` [Example 34, 3-{(E)-2-[4-(2,2-Dimethyl-piperazine-1-carbonyl)-6-(4-hydroxy-phenyl)-1H-pyrazolo[3,4-b]pyridin-3-yl]-vinyl}-N,N-dimethyl-benzamide], 98%; with `CN1Cc2ccc(/C=C/c3n[nH]c4nc(-c5ccc(O)cc5)cc(C(=O)N5CCNCC5)c34)cc2C1=O` [Example 35, 6-{(E)-2-[6-(4-Hydroxy-phenyl)-4-(piperazine-1-carbonyl)-1H-pyrazolo[3,4-b]pyridin-3-yl]-vinyl}-2-methyl-2,3-dihydro-isoindol-1-one], 98%.
As for `O=C(c1cc(-c2ccc(O)cc2)nc2[nH]nc(CCC3CCCCC3)c12)N1CCNCC1` [Example 36, [3-(2-cyclohexyl-ethyl)-6-(4-hydroxy-phenyl)-1H-pyrazolo[3,4-b]pyridin-4-yl]-piperazin-1-yl-methanone], the figure is 81%.
As to `O=C(c1cc(-c2ccc(O)cc2)nc2[nH]nc(/C=C/c3ccc(F)cc3)c12)N1CCNCC1` [Example 37, [3-[(E)-2-(4-Fluoro-phenyl)-vinyl]-6-(4-hydroxy-phenyl)-1H-pyrazolo[3,4-b]pyridin-4-yl]-piperazin-1-yl-methanone], the inhibition at 1.14 µM was found to be 97%.
With `Cc1cccc(/C=C/c2n[nH]c3nc(-c4ccc(O)cc4)cc(C(=O)N4CCNCC4)c23)c1` [Example 38, [6-(4-Hydroxy-phenyl)-3-((E)-2-m-tolyl-vinyl)-1H-pyrazolo[3,4-b]pyridin-4-yl]-piperazin-1-yl-methanone], the inhibition at 1.14 µM came out at 98%.
As for `O=C(c1cc(-c2ccc(O)cc2)nc2[nH]nc(/C=C/c3ccc(Cl)cc3Cl)c12)N1CCNCC1` [Example 39, [3-[(E)-2-(2,4-Dichloro-phenyl)-vinyl]-6-(4-hydroxy-phenyl)-1H-pyrazolo[3,4-b]pyridin-4-yl]-piperazin-1-yl-methanone], the figure is 39%; as for `Cc1cc(C)cc(/C=C/c2n[nH]c3nc(-c4ccc(O)cc4)cc(C(=O)N4CCNCC4)c23)c1` [Example 40, [3-[(E)-2-(3,5-Dimethylphenyl)-vinyl]-6-(4-hydroxy-phenyl)-1H-pyrazolo[3,4-b]pyridin-4-yl]-piperazin-1-yl-methanone], 99%.
With `O=C(c1cc(-c2ccc(O)cc2)nc2[nH]nc(/C=C/c3ccc(OC(F)F)cc3)c12)N1CCNCC1` [Example 41, [3-[(E)-2-(4-Difluoromethoxy-phenyl)-vinyl]-6-(4-hydroxy-phenyl)-1H-pyrazolo[3,4-b]pyridin-4-yl]-piperazin-1-yl-methanone] the figure was 97%.
As for `O=C(c1cc(-c2ccc(O)cc2)nc2[nH]nc(/C=C/c3ccc(C(F)(F)F)cc3)c12)N1CCNCC1` [Example 42, {6-(4-Hydroxy-phenyl)-3-[(E)-2-(4-trifluoromethylphenyl)-vinyl]-1 H-pyrazolo[3,4-b]pyridin-4-yl}-piperazin-1-yl-methanone], the inhibition at 1.14 µM was 66%.
With `COc1ccc(/C=C/c2n[nH]c3nc(-c4ccc(O)cc4)cc(C(=O)N4CCNCC4)c23)c(OC)c1` [Example 43, [3-[(E)-2-(2,4-Dimethoxyphenyl)-vinyl]-6-(4-hydroxy-phenyl)-1H-pyrazolo[3,4-b]pyridin-4-yl]-piperazin-1-yl-methanone], the inhibition at 1.14 µM came to 87%.
As for `O=C(c1cc(-c2ccc(O)cc2)nc2[nH]nc(/C=C/c3ccc(Oc4ccccc4)cc3)c12)N1CCNCC1` [Example 44, {6-(4-hydroxy-phenyl)-3-[(E)-2-(4-phenoxy-phenyl)-vinyl]-1H-pyrazolo[3,4-b]pyridin-4-yl}-piperazin-1-yl-methanone], the figure is 97%.
With `O=C(c1cc(-c2ccc(O)cc2)nc2[nH]nc(/C=C/c3ccc(Cl)c(Cl)c3)c12)N1CCNCC1` [Example 45, [3-[(E)-2-(3,4-Dichloro-phenyl)-vinyl]-6-(4-hydroxy-phenyl)-1H-pyrazolo[3,4-b]pyridin-4-yl]-piperazin-1-yl-methanone] the figure was 61%; with `O=C(c1cc(-c2ccc(O)cc2)nc2[nH]nc(/C=C/c3cccc(C(F)(F)F)c3)c12)N1CCNCC1` [Example 46, {6-(4-Hydroxy-phenyl)-3-[(E)-2-(3-trifluoromethylphenyl)-vinyl]-1 H-pyrazolo[3,4-b]pyridin-4-yl}-piperazin-1-yl-methanone], 97%; with `Cc1cc(/C=C/c2n[nH]c3nc(-c4ccc(O)cc4)cc(C(=O)N4CCNCC4)c23)ccc1O` [Example 47, [3-[(E)-2-(4-Hydroxy-3-methyl-phenyl)-vinyl]-6-(4-hydroxy-phenyl)-1H-pyrazolo[3,4-b]pyridin-4-yl]-piperazin-1-yl-methanone], 98%.
Take `O=C(c1cc(-c2ccc(O)cc2)nc2[nH]nc(/C=C/c3cccc(Cl)c3)c12)N1CCNCC1` [Example 48, [3-[(E)-2-(3-Chloro-phenyl)-vinyl]-6-(4-hydroxy-phenyl)-1H-pyrazolo[3,4-b]pyridin-4-yl]-piperazin-1-yl-methanone]: the inhibition at 1.14 µM worked out at 97%.

Values taken from patent EP2567959B1, “6-(4-HYDROXY-PHENYL)-3-STYRYL-1H-PYRAZOLO[3,4-B]PYRIDINE-4-CARBOXYLIC ACID AMIDE DERIVATIVES AS KINASE INHIBITORS” (SANOFI, priority 2011, dated 2013).
